# Laboratory results reported in article PMC10641818, “Development of First-in-Class Dual Sirt2/HDAC6 Inhibitors as Molecular Tools for Dual Inhibition of Tubulin Deacetylation” (Journal of Medicinal Chemistry, 2023).
# How the values were obtained:
# [1] = test system: HGC27 gastric carcinoma cells; assay: Cell viability assay (MTS) HGC27; type: cell-based; settings: Homo sapiens, HGC-27; 72 h, MTS, mean ± SD
# Description: (§1) Cell viability assays of HGC27 and PC-3M-luc cells were performed by using the Celltiter 96 Aqueous Nonradioactive Proliferation Assay (Promega). Cells were seeded in sterile 96-well plates at a density of 2000 cells per well and incubated overnight at 37 °C and 5% CO2. Compound or vehicle were added to a final concentration of 0.5% DMSO. […] Cells were seeded at densities of 10^4 cells/well for W1 cells or 2 × 10^3 cells/well for MCF-7 cells. Tests were performed in 96-well plates (Sarstedt AG, Nümbrecht, Germany). After incubation overnight, cells were supplemented with half logarithmic dilution series of the indicated compounds and DPBS (PAN Biotech GmbH, Aidenbach, Germany) as control. Then 72 h after addition of cytostatic treatment, the MTT solution (20 μL, 5 mg/mL) was added into the wells for 1 h at 37 °C and 5% CO2 until formazan crystals were formed. The supernatant was removed, and the cells were dissolved in 200 μL of DMSO. Absorption was analyzed at 570 nm, with background subtraction at 690 nm, using a plate reader (Thermomultiscan EX, Thermo, Schwerte, Germany). Cell viability was then determined by nonlinear regression and a four-parameter logistic equation with variable hill slope. […] The significance of the difference of the effects of 33 and 4 + 57 was determined by using an unpaired, two-tailed t test with Welch’s correction, implemented in GraphPad Prism 8.4.0 (GraphPad, USA). Statistical significance was accepted if p < 0.05. Asterisks indicate *p < 0.05, **p < 0.01.
# [2] = test system: PC-3M-luc prostate cancer cells; assay: Cell viability assay (MTS) PC-3M-luc; type: cell-based; settings: 72 h, @ 50 μM
# Description: as §1
# W1 ovarian cancer cells = assay: Cell viability assay (MTT) W1; type: cell-based; settings: 72 h, @ 50 μM
# Description: as §1
# HDAC3/NcoR2 = biological target: T1, HDAC3/NcoR2 (Homo sapiens, UniProt O15379); assay: HDAC3 in vitro deacetylation assay (ZMAL); type: biochemical; settings: mean ± SD
# T1 construct: purchased BPS Bioscience 50003
# T1 sequence (O15379 whole entry): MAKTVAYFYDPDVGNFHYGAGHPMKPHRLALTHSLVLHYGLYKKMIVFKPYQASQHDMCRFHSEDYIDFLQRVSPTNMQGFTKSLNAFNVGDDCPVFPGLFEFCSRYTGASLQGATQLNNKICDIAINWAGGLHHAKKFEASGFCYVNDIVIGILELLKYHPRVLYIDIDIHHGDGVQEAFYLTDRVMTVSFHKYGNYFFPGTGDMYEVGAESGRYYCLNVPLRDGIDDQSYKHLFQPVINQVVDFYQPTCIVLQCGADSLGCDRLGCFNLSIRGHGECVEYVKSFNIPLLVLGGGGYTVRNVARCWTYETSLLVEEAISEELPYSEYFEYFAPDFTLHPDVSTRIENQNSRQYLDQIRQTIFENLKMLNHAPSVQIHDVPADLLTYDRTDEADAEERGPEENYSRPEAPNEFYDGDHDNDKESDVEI
# T1 sequence (Q9Y618 395-489 partner limits assumed): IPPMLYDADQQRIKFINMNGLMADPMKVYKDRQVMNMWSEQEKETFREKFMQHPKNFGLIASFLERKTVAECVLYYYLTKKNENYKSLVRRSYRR
# HDAC6 = biological target: T2, HDAC6 (Homo sapiens, UniProt Q9UBN7); assay: HDAC6 in vitro deacetylation assay (ZMAL); type: biochemical; set-up: purchased BPS Bioscience 50006; settings: deacetylation, mean ± SD
# T2 sequence (Q9UBN7 1-1215): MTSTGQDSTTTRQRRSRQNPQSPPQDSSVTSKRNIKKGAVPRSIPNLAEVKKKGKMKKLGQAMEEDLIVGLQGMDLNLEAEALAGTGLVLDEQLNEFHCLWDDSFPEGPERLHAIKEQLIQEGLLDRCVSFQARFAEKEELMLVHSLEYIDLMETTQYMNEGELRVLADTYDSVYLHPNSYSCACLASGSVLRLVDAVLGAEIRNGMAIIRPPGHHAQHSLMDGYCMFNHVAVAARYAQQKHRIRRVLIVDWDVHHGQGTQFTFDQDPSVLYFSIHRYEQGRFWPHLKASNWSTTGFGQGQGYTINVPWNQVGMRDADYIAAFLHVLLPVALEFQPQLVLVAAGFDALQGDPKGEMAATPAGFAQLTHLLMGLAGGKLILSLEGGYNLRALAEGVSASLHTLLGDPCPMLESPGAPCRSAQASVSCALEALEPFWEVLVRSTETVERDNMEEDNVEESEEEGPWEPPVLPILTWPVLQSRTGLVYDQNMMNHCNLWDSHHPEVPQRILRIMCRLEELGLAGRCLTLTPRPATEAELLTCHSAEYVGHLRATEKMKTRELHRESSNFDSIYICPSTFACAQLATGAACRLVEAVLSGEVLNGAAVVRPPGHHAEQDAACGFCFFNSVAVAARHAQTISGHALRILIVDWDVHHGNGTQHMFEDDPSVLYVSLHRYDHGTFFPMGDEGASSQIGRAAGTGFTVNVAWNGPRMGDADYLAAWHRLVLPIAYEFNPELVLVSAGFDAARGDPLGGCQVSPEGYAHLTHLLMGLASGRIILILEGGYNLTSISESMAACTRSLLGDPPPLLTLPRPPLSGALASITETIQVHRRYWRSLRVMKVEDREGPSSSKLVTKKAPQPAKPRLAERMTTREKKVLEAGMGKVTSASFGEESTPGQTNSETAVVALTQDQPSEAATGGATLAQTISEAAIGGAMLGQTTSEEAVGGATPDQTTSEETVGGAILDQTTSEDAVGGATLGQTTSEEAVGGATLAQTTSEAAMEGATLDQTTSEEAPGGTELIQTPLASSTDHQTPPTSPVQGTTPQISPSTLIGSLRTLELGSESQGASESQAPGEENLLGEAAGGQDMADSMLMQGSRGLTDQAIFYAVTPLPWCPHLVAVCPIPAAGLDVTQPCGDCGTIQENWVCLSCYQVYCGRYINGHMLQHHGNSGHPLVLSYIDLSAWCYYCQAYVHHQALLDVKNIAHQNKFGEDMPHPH
# HDAC1 = biological target: T3, HDAC1 (Homo sapiens, UniProt Q13547); assay: HDAC1 in vitro deacetylation assay (ZMAL); type: biochemical; settings: deacetylation, mean ± SD
# T3 construct: purchased BPS Bioscience 50051
# T3 sequence (Q13547 whole entry): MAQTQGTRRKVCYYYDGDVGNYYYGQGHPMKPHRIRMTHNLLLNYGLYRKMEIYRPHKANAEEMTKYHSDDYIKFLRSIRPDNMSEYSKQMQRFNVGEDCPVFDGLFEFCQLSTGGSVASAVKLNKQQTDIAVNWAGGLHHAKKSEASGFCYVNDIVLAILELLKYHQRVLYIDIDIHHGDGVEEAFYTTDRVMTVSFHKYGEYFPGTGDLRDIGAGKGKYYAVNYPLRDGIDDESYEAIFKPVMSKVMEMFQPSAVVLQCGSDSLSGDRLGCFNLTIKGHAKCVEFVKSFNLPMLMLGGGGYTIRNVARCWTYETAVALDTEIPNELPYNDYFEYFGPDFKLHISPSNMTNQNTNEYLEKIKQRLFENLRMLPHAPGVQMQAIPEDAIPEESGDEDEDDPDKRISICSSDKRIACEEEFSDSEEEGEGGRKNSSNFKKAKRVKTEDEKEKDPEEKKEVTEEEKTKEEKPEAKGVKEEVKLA
# Sirt3 = biological target: T4, Sirt3 (Homo sapiens, UniProt Q9NTG7); assay: Sirt3 in vitro deacetylation assay (ZMAL); type: biochemical
# T4 construct: the respective sirtuin (Sirt1_134–747, Sirt2_56–356, or Sirt3_118–395) was mixed with; made in house; host or cells: Escherichia coli BL21 Star (DE3)
# T4 sequence (Q9NTG7 118-395): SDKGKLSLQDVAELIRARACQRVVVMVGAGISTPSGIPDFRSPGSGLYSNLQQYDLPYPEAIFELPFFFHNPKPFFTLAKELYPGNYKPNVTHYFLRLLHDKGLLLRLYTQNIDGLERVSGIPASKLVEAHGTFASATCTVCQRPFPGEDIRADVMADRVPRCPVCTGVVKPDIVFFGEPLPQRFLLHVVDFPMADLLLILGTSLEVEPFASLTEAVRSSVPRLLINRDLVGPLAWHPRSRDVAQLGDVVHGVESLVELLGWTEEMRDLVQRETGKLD
# HDAC2 = biological target: T5, HDAC2 (Homo sapiens, UniProt Q92769); assay: HDAC2 in vitro deacetylation assay (ZMAL); type: biochemical; settings: mean ± SD
# T5 construct: purchased BPS Bioscience 50052
# T5 sequence (Q92769 whole entry): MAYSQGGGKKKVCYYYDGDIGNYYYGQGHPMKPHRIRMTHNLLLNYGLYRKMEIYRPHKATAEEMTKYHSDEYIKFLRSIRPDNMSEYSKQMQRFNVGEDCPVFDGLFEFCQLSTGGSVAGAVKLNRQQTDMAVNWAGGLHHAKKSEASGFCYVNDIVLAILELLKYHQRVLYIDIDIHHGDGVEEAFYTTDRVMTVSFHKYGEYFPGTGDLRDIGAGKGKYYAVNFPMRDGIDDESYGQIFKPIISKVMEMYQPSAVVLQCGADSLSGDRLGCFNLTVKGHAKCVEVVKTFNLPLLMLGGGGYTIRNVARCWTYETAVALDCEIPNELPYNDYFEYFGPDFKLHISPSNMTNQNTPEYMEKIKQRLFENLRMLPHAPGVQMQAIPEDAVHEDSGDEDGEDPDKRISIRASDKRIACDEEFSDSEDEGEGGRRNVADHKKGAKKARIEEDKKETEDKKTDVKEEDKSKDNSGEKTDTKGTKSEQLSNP
# Sirt2 (demyristoylation) = biological target: T6, Sirt2 (demyristoylation) (Homo sapiens, UniProt Q8IXJ6); assay: Discontinuous Sirt2 demyristoylation assay (ZMML substrate); type: biochemical; settings: mean ± SD
# T6 construct: the respective sirtuin (Sirt1_134–747, Sirt2_56–356, or Sirt3_118–395) was mixed with; made in house; host or cells: Escherichia coli BL21 Star (DE3)
# T6 sequence (Q8IXJ6 56-356): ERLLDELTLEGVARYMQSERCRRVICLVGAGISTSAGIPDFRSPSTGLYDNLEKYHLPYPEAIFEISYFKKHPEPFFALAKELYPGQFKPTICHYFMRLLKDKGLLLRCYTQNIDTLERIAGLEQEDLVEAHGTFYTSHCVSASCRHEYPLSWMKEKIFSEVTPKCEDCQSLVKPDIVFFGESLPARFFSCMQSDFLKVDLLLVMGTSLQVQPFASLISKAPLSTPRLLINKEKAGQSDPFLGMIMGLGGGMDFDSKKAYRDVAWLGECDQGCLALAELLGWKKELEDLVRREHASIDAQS
# Sirt1 = biological target: T7, Sirt1 (Homo sapiens, UniProt Q96EB6); assay: Sirt1 in vitro deacetylation assay (ZMAL); type: biochemical
# T7 construct: the respective sirtuin (Sirt1_134–747, Sirt2_56–356, or Sirt3_118–395) was mixed with; made in house; host or cells: Escherichia coli BL21 Star (DE3)
# T7 sequence (Q96EB6 134-747): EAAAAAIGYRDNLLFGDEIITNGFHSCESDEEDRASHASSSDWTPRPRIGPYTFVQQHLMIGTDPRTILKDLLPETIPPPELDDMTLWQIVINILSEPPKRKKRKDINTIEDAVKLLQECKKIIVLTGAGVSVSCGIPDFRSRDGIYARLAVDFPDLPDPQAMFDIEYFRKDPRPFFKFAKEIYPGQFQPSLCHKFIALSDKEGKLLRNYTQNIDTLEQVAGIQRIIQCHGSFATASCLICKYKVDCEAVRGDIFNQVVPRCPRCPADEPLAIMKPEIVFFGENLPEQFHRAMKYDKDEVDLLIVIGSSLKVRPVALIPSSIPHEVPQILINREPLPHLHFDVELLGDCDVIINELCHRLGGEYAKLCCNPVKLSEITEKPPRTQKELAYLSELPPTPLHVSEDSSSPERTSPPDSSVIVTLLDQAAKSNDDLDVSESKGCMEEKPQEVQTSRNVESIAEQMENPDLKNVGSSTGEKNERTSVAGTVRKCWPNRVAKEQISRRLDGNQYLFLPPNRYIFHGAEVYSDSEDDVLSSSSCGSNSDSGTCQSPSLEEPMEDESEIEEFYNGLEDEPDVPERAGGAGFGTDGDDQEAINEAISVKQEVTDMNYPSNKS
# Sirt2 = biological target: T8, Sirt2 (Homo sapiens, UniProt Q8IXJ6); assay: Sirt2 in vitro deacetylation assay (ZMAL, trypsin-based fluorescence); type: biochemical; settings: deacetylation, mean ± SD
# T8 construct: the respective sirtuin (Sirt1_134–747, Sirt2_56–356, or Sirt3_118–395) was mixed with; made in house; host or cells: Escherichia coli BL21 Star (DE3)
# T8 sequence (Q8IXJ6 56-356): T6 sequence (Q8IXJ6 56-356)
# [3] = test system: MCF-7 breast cancer cells; assay: Cell viability assay (MTT) MCF-7; type: cell-based; settings: 72 h, @ 50 μM
# Description: as §1
structure (smiles),measurement,setting,value
"Cc1cc(C)nc(SCC(=O)Nc2ncc(Cc3cccc(OCc4cn(CCOCCOCCOCCOCCC(=O)Nc5ccc(C(=O)NCCCCCCC(=O)NO)cc5)nn4)c3)s2)n1 [Compound 46, 4-(1-(4-((3-((2-(2-((4,6-Dimethylpyrimidin-2-yl)thio)acetamido)thiazol-5-yl)methyl)phenoxy)methyl)-1H-1,2,3-triazol-1-yl)-3,6,9,12-tetraoxapentadecan-15-amido)-N-(7-(hydroxyamino)-7-oxoheptyl)benzamide]",EC50,[1],17200 ± 1000 nM
same,PC-3M-luc cellular effect,[2],ni ^b (ni = no inhibition (cellular effect <20% @ 50 μM))
same,W1 cellular effect,W1 ovarian cancer cells,ni ^b (ni = no inhibition (cellular effect <20% @ 50 μM))
same,IC50,HDAC3/NcoR2,140 ± 10 nM
same,IC50,HDAC6,5 ± 0.5 nM
same,IC50,HDAC1,210 ± 30 nM
same,inhibition at 20 µM,Sirt3,< 15%
same,IC50,HDAC2,340 ± 20 nM
same,IC50,Sirt2 (demyristoylation),13200 ± 1900 nM
same,inhibition at 20 µM,Sirt1,< 15%
same,IC50,Sirt2,480 ± 70 nM
same,MCF-7 cellular effect,[3],ni ^b (ni = no inhibition (cellular effect <20% @ 50 μM))
